One assay deals with MOLT-4 cells. As to the kind of experiment: MOLT-4 cell viability, MTT assay. The assay is classed as cell-based. Conditions: Homo sapiens, MOLT-4, 48 h. The method in brief:
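MOLT-4 cells in RPMI 1640 with 10% FBS were exposed to compounds for 48 h at 9 concentrations (3.16-fold dilutions, triplicates). After 4 h with MTT and overnight SDS/HCl solubilisation, absorbance was read at 540 nm. IC50 came from four-parameter fits versus control, as the mean of ≥2 independent experiments.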
Background: Tetrazolium assays rely on reduction of a dye to a coloured formazan, in cell work by metabolically active cells.

A further assay concerns COR-L105. As to the kind of experiment: CellTiter-Glo proliferation assay, COR-L105. The class given is cell-based. Conditions: Homo sapiens, COR-L105, 120 h, COR-L105, 5 days; for Emax: read-out: COR-L105 Span (max). The method in brief:
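Both lines grown in RPMI-1640 + 10% FBS. COR-L105 plated flat at 1,000 cells/well overnight; NCI-H1650 grown as spheroids, 3,000 cells/well, 72 h. Compounds at 0.508 nM-10 μM final for 5 days, 37° C. ATP read by CellTiter-Glo (3D version for spheroids); IC50 from variable-slope fit normalized to untreated cells.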
In general terms: Cellular ATP, detected with luciferase, serves as a proxy for viable cell number.

The structures appear in SMILES notation.

The IC50 is the midpoint of a concentration-inhibition curve. Turning to `Cc1ncsc1-c1ccc([C@H](C)NC(=O)C2CC(O)CN2C(=O)C(NC(=O)CCCCCCCCCCCN2CCN(CC#Cc3ccc(OCCCc4sc(N5CCCc6c5nnc(Nc5nc7ccccc7s5)c6C)nc4C(=O)O)c(F)c3)CC2)C(C)(C)C)cc1` (stereo in doubt) [Example 31, 2-[3-(1,3-benzothiazol-2-ylamino)-4-methyl-6,7-dihydro-5H-pyrido[2,3-c]pyridazin-8-yl]-5-[3-[2-fluoro-4-[3-[4-[12-[[(1S)-1-[(2S,4R)-4-hydroxy-2-[[(1S)-1-[4-(4-methylthiazol-5-yl)phenyl]ethyl]carbamoyl]pyrrolidine-1-carbonyl]-2,2-dimethyl-propyl]amino]-12-oxo-dodecyl]piperazin-1-yl]prop-1-ynyl]phenoxy]propyl] thiazole-4-carboxylic acid], the IC50 in the assay on MOLT-4 cells was 8.04 nM.
Turning to `Cc1ncsc1-c1ccc([C@H](C)NC(=O)[C@@H]2C[C@@H](O)CN2C(=O)[C@@H](NC(=O)CC23CC4CC(C2)CC(CC(=O)N2CCN(CC#Cc5ccc(OCCCc6sc(N7CCCc8c7nnc(Nc7nc9ccccc9s7)c8C)nc6C(=O)O)c(F)c5)CC2)(C4)C3)C(C)(C)C)cc1` [Example 42, 2-(3-(benzo[d]thiazol-2-ylamino)-4-methyl-6,7-dihydropyrido [2,3-c]pyridazin-8(5H)-yl)-5-(3-(2-fluoro-4-(3-(4-(2-((3S,5R)-3-(2-(((S)-1-((2S,4R)-4-hydroxy-2-(((S)-1-(4-(4-methylthiazol-5-yl)phenyl)ethyl)carbamoyl)pyrrolidin-1-yl)-3,3-dimethyl-1-oxobutan-2-yl)amino)-2-oxoethyl)adamantan-1-yl)acetyl)piperazin-1-yl)prop-1-yn-1-yl)phenoxy)propyl)thiazole-4-carboxylic acid], in the assay with COR-L105, the IC50 came out at 290 nM and the Emax amounted to 91.8%.
`Cc1ncsc1-c1ccc([C@H](C)NC(=O)[C@@H]2C[C@@H](O)CN2C(=O)[C@@H](NC(=O)CCCC(=O)N2CCN(CC#Cc3ccc(OCCCc4sc(N5CCCc6c5nnc(Nc5nc7ccccc7s5)c6C)nc4C(=O)O)c(F)c3)CC2)C(C)(C)C)cc1` [Example 35, 2-(3-(benzo[d]thiazol-2-ylamino)-4-methyl-6,7-dihydropyrido [2,3-c]pyridazin-8(5H)-yl)-5-(3-(2-fluoro-4-(3-(4-(5-(((S)-1-((2S,4R)-4-hydroxy-2-(((S)-1-(4-(4-methylthiazol-5-yl)phenyl)ethyl)carbamoyl)pyrrolidin-1-yl)-3,3-dimethyl-1-oxobutan-2-yl)amino)-5-oxopentanoyl)piperazin-1-yl)prop-1-yn-1-yl)phenoxy)propyl)thiazole-4-carboxylic acid]: in the assay with COR-L105, the IC50 is 90.2 nM and the Emax was found to be 87.9%.
With `Cc1ncsc1-c1ccc(CNC(=O)[C@@H]2C[C@@H](O)CN2C(=O)[C@@H](NC(=O)CCCCCCCCCCC(=O)N2CCN(CC#Cc3ccc(OCCCc4sc(N5CCCc6c5nnc(Nc5nc7ccccc7s5)c6C)nc4C(=O)O)c(F)c3)CC2)C(C)(C)C)cc1` [Example 48, 2-(3-(benzo[d]thiazol-2-ylamino)-4-methyl-6,7-dihydropyrido [2,3-c]pyridazin-8(5H)-yl)-5-(3-(2-fluoro-4-(3-(4-(12-(((S)-1-((2S,4R)-4-hydroxy-2-((4-(4-methylthiazol-5-yl)benzyl)carbamoyl)pyrrolidin-1-yl)-3,3-dimethyl-1-oxobutan-2-yl)amino)-12-oxododecanoyl)piperazin-1-yl)prop-1-yn-1-yl)phenoxy)propyl)thiazole-4-carboxylic acid], in the assay with COR-L105, the IC50 stood at 111 nM and the Emax stood at 94%.
For the molecule `Cc1ncsc1-c1ccc(CNC(=O)[C@@H]2C[C@@H](O)CN2C(=O)[C@@H](NC(=O)CCCCCCC(=O)N2CCN(CC#Cc3ccc(OCCCc4sc(N5CCCc6c5nnc(Nc5nc7ccccc7s5)c6C)nc4C(=O)O)c(F)c3)CC2)C(C)(C)C)cc1` [Example 33, 2-(3-(benzo[d]thiazol-2-ylamino)-4-methyl-6,7-dihydropyrido [2,3-c]pyridazin-8(5H)-yl)-5-(3-(2-fluoro-4-(3-(4-(8-(((S)-1-((2S,4R)-4-hydroxy-2-((4-(4-methylthiazol-5-yl)benzyl)carbamoyl)pyrrolidin-1-yl)-3,3-dimethyl-1-oxobutan-2-yl)amino)-8-oxooctanoyl)piperazin-1-yl)prop-1-yn-1-yl)phenoxy)propyl) thiazole-4-carboxylic acid], in the assay with COR-L105, inhibition was half-maximal at 93.7 nM (IC50) and the Emax was 76.4%.
The molecule `Cc1ncsc1-c1ccc([C@H](C)NC(=O)[C@@H]2C[C@@H](O)CN2C(=O)[C@@H](NC(=O)CCCCCCCCCCCCCCCN(C)CCOC23CC4(C)CC(C)(CC(Cn5ncc(-c6ccc(N7CCCc8c7nnc(Nc7nc9ccccc9s7)c8C)nc6C(=O)O)c5C)(C4)C2)C3)C(C)(C)C)cc1` [Example 1, 6-[3-(1,3-benzothiazol-2-ylamino)-4-methyl-6,7-dihydro-5H-pyrido[2,3-c]pyridazin-8-yl]-3-[1-[[3-[2-[[16-[[(1S)-1-[(2S,4R)-4-hydroxy-2-[[(1S)-1-[4-(4-methylthiazol-5-yl)phenyl]ethyl]carbamoyl]pyrrolidine-1-carbonyl]-2,2-dimethyl-propyl]amino]-16-oxo-hexadecyl]-methyl-amino]ethoxy]-5,7-dimethyl-1-adamantyl]methyl]-5-methyl-pyrazol-4-yl]pyridine-2-carboxylic acid] returned an IC50 in the assay with MOLT-4 cells of 0.636 nM.
Still for that read-out and setting: for `Cc1ncsc1-c1ccc([C@H](C)NC(=O)[C@@H]2C[C@@H](O)CN2C(=O)[C@@H](NC(=O)CCCCCCCCN(C)CCOC23CC4(C)CC(C)(CC(Cn5ncc(-c6ccc(N7CCCc8c7nnc(Nc7nc9ccccc9s7)c8C)nc6C(=O)O)c5C)(C4)C2)C3)C(C)(C)C)cc1` [Example 5, 6-[3-(1,3-benzothiazol-2-ylamino)-4-methyl-6,7-dihydro-5H-pyrido[2,3-c]pyridazin-8-yl]-3-[1-[[3-[2-[[9-[[(1S)-1-[(2S,4R)-4-hydroxy-2-[[(1S)-1-[4-(4-methylthiazol-5-yl)phenyl]ethyl]carbamoyl]pyrrolidine-1-carbonyl]-2,2-dimethyl-propyl]amino]-9-oxo-nonyl]-methyl-amino]ethoxy]-5,7-dimethyl-1-adamantyl]methyl]-5-methyl-pyrazol-4-yl]pyridine-2-carboxylic acid] the value was 3.58 nM.
The molecule `Cc1ncsc1-c1ccc(CNC(=O)C2C[C@@H](O)CN2C(=O)C(NC(=O)CCCCCC(=O)N2CCN(CC#Cc3ccc(OCCCc4sc(N5CCCc6c5nnc(Nc5nc7ccccc7s5)c6C)nc4C(=O)O)c(F)c3)CC2)C(C)(C)C)cc1` (stereo in doubt) [Example 15, 2-[3-(1,3-benzothiazol-2-ylamino)-4-methyl-6,7-dihydro-5H-pyrido[2,3-c]pyridazin-8-yl]-5-[3-[2-fluoro-4-[3-[4-[7-[[(1S)-1-[(2S,4R)-4-hydroxy-2-[[4-(4-methylthiazol-5-yl)phenyl]methylcarbamoyl]pyrrolidine-1-carbonyl]-2,2-dimethyl-propyl]amino]-7-oxo-heptanoyl]piperazin-1-yl]prop-1-ynyl]phenoxy]propyl] thiazole-4-carboxylic acid] came in with an IC50 with MOLT-4 cells of 5.67 nM.
Take `Cc1ncsc1-c1ccc([C@H](C)NC(=O)[C@@H]2C[C@@H](O)CN2C(=O)[C@@H](NC(=O)CCCCCCCCCCC(=O)N2CCN(CC#Cc3ccc(OCCCc4sc(N5CCCc6c5nnc(Nc5nc7ccccc7s5)c6C)nc4C(=O)O)c(F)c3)CC2)C(C)(C)C)cc1` [Example 46, 2-(3-(benzo[d]thiazol-2-ylamino)-4-methyl-6,7-dihydropyrido [2,3-c]pyridazin-8(5H)-yl)-5-(3-(2-fluoro-4-(3-(4-(12-(((S)-1-((2S,4R)-4-hydroxy-2-(((S)-1-(4-(4-methylthiazol-5-yl)phenyl)ethyl)carbamoyl)pyrrolidin-1-yl)-3,3-dimethyl-1-oxobutan-2-yl)amino)-12-oxododecanoyl)piperazin-1-yl)prop-1-yn-1-yl)phenoxy)propyl)thiazole-4-carboxylic acid]: in the assay with COR-L105, half-maximal inhibition (IC50) required 163 nM and the Emax turned out to be 101%.
Consider `Cc1ncsc1-c1ccc([C@H](C)NC(=O)[C@@H]2C[C@@H](O)CN2C(=O)[C@@H](NC(=O)CCCCCCCCCCC(=O)N2CCN(CCOC34CC5(C)CC(C)(CC(Cn6ncc(-c7ccc(N8CCCc9c8nnc(Nc8nc%10ccccc%10s8)c9C)nc7C(=O)O)c6C)(C5)C3)C4)CC2)C(C)(C)C)cc1` [Example 47, 6-(3-(benzo[d]thiazol-2-ylamino)-4-methyl-6,7-dihydropyrido [2,3-c]pyridazin-8(5H)-yl)-3-(1-(((1r,3s,5R,7S)-3-(2-(4-(12-(((S)-1-((2S,4R)-4-hydroxy-2-(((S)-1-(4-(4-methylthiazol-5-yl)phenyl)ethyl)carbamoyl)pyrrolidin-1-yl)-3,3-dimethyl-1-oxobutan-2-yl)amino)-12-oxododecanoyl)piperazin-1-yl)ethoxy)-5,7-dimethyladamantan-1-yl)methyl)-5-methyl-1H-pyrazol-4-yl)picolinic acid], for which, in the assay on COR-L105, the concentration for half-maximal inhibition (IC50) was found to be 228 nM and the Emax worked out at 97.6%.
As to `Cc1ncsc1-c1ccc([C@H](C)NC(=O)[C@@H]2C[C@@H](O)CN2C(=O)[C@@H](NC(=O)CCCCCCCCCCCN2CCN(CC#Cc3ccc(OCCCc4sc(N5CCCc6c5nnc(Nc5nc7ccccc7s5)c6C)nc4C(=O)O)c(F)c3)CC2)C(C)(C)C)cc1` [Example 51, 2-(3-(benzo[d]thiazol-2-ylamino)-4-methyl-6,7-dihydropyrido [2,3-c]pyridazin-8(5H)-yl)-5-(3-(2-fluoro-4-(3-(4-(12-(((S)-1-((2S,4R)-4-hydroxy-2-(((S)-1-(4-(4-methylthiazol-5-yl)phenyl)ethyl)carbamoyl)pyrrolidin-1-yl)-3,3-dimethyl-1-oxobutan-2-yl)amino)-12-oxododecyl)piperazin-1-yl)prop-1-yn-1-yl)phenoxy)propyl)thiazole-4-carboxylic acid], in the assay with COR-L105, the IC50 came out at 37.6 nM and the Emax is 72.8%.

The values are drawn from patent US20240376094A2, “SELECTIVE BCL-XL PROTAC COMPOUNDS AND METHODS OF USE” (Les Laboratoires Servier, priority 2021, published 2024).
